The text below walks through data of US5750522A, “Pyrrolo[1,2-d] [1,2,4]triazine derivatives” (American Home Products Corporation, priority 1996, dated 1998).

Structures can show the parent of a compound that is named as a salt.

One data set concerns the target ml muscarinic receptor (Homo sapiens, UniProt P11229). Kind of data set: biochemical. It is filed as binding.
For data set [1], the system named is patients with mild to moderate Alzheimer's disease. To be noted: especially at the higher doses where it is most effective; cited from earlier work.
Data set [2] shares this test system. To be noted: cited from earlier work.
For data set [3] the following is noted: continuous infusion over 2 weeks used because of it; cited from earlier work.
Another data set has as its system ml receptors. The following applies: background statement; cited from earlier work.
The conditions of data set [4]: quaternary ammonium group; background statement; cited from earlier work.
Data set [5] has as its target T1, M1 acetylcholine receptors (ml receptors in CHO cells) (Homo sapiens, UniProt P11229).
T1 sequence (P11229 1-460): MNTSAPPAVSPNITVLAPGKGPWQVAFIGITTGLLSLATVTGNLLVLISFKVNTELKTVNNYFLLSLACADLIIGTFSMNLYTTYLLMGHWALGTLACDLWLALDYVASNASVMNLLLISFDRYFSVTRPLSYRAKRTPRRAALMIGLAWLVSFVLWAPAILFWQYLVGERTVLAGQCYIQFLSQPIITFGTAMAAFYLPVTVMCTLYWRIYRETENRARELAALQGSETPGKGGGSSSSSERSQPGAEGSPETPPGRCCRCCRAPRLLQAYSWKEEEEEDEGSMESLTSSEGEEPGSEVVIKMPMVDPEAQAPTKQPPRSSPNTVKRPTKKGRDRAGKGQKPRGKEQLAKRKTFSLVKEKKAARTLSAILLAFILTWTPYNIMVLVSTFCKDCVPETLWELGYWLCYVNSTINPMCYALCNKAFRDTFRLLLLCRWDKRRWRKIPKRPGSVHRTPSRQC
Kind of data set: cell-based. The following applies: at 30x Ki (μM), carb = 100%, 1 h, 37° C., read-out: % PI Hydrolysis ml receptors in CHO cells.

The molecule `Cc1nnc(NCCCN2CC3CCC(CC3)C2)n2cccc12` [Example 2, [4-(3-Azabicyclo[3.2.2.]-3-propyl]-(1-methylpyrrolo[1,2-d][1,2,4]triazin-4-yl)aminedihydrochloride] yielded a Ki at ml muscarinic receptor of 1390 nM.
As to `Nc1c2c(nc3ccccc13)CCCC2` [tacrine], in data set [1], the adverse side effects entry is “adverse side effects especially at the higher doses where it is most effective”. For the same molecule, the improvement in memory result in data set [2] was “improvement in memory can be shown in patients with mild to moderate Alzheimer's disease”.
With `COC(=O)C1=CCCN(C)C1` [arecoline], in data set [3], the half-life result is on record as “short half-life”. Moreover, in data set [2], the improvement in memory result is given as “memory improvement in patients with mild to moderate Alzheimer's disease”.
Consider `C[N+](C)(C)CCOC(N)=O` [carbachol], for which the “activation of ml receptors” value in the data set on ml receptors was “able to fully activate ml receptors”. Besides, the “ability to enter the CNS” value in data set [4] was “not able to enter the CNS”.
Turning to `C[C@@H]1O[C@H](C[N+](C)(C)C)C[C@H]1O` [muscarine], the “activation of ml receptors” value with ml receptors is reported as “able to fully activate ml receptors”. The “ability to enter the CNS” value in data set [4] is on record as “not able to enter the CNS”.
Turning to `Cc1nnc(NCCN2CC3CCC(CC3)C2)n2cccc12` [Example 3, [4-(3-Azabicyclo[3.2.2]non-3-yl)ethyl]-(1-methylpyrrolo[1,2-d][1,2,4]triazin-4-yl)amine dihydrochloride], the Emax in data set [5] worked out at 24%. Moreover, the Ki at ml muscarinic receptor was 4450 nM.
On ml muscarinic receptor, `Cc1nnc(NCCCCN2CC3CCC(CC3)C2)n2cccc12` [Example 1, [4-(3-Azabicyclo[3.2.2]-3-yl)-butyl]-(1-methylpyrrolo[1,2-d][1,2,4]triazin-4-yl)amine dihydrochloride] returned a Ki of 310 nM.
Turning to `Cc1nnc(NC2CN3CCC2CC3)n2cccc12` (stereo not shown) [Example 4, (1-Azabicyclo[2.2.2]oct-3-yl)-1-methylpyrrolo[1,2-d][1,2,4]triazin-4-ylamine dihydrochloride], the IC50 on ml muscarinic receptor is 20200 nM.

As a reminder, the Ki is a dissociation constant, usually derived from enzyme kinetics or from competition with a known ligand. Lower therefore signals a stronger hold on the target. As usually defined, the IC50 is the concentration that inhibits the measured activity by half. Read a high IC50 as weaker potency in that assay.
